Reference: US8071613B2, “Anti-constipation composition” (Sucampo AG, priority 2000, dated 2011)
Each block holds one compound with its values, some of them ahead of it.

Tests used:
[1] = Ratio of mono-cyclic/bi-cyclic structure by NMR measurement; type: physicochemical; conditions: NMR measurement in CDCl3 solution
From the text: It has been discovered that in the absence of water, compounds represented by Formula (I) exist predominantly in the form of the bi-cyclic compound. In aqueous media, it is believed that hydrogen bonding occurs between, for example, the ketone position at the C-15 position, thereby hindering bi-cyclic ring formation. In addition, it is believed that the halogen atom(s) at the C-16 position promote bi-cyclic ring formation. The mono-cyclic/bi-cyclic structures, for example, may be present in a ratio of 1:6 in D2O; 1:10 in CD3OD-D2O and 4:96 in CDCl3. Accordingly, a preferable embodiment of the present invention is the composition in which the bi-cyclic form is present in ratio of bi -cyclic/mono-cyclic of least 1:1, and preferably 20:1, or even greater to substantially all bi-cyclic compound; 100% bi-cyclic compound is within this invention.
The biological activity of compositions due to the ratios of mono-cyclic/bi-cyclic structures when Z of general formula (I) is an oxygen atom, and a ketone is present at the C-9 position of the present invention can be seen from the following examples.

intraintestinal content = assay: Enteropooling test; type: in vivo; conditions: dose that raises the intraintestinal content by 50%
From the text: The enteropooling test employed in the present invention is intended to investigate mainly on the action (ii) and/or (iii), which assesses the effect of the drug on the intraintestinal water pool by measuring the volume of the intraintestinal content. The bi-cyclic-halogenated compounds of the present invention may show extremely great enteropooling effect. However, they hardly or slightly cause contraction of intestines which is one of indexes for assessment of the action (iv). Accordingly, the bi-cyclic-halogenated compounds of the present invention are considered to alleviate constipation by mainly acting on intestinal mucosa directly or indirectly to affect transfer of electrolytes and water from intestinal walls into blood vessels and/or from blood vessels into intestines, resulting in reduced water absorption and/or in increased water secretion through the intestines, increased intraintestinal water pool and promoted transfer of the intraintestinal content. Enteropooling tests and diarrhea tests were conducted. The dose that raise the intraintestinal content by 50% was referred to as ED50. [drawing 31] […]

[2] = Storage stability at 40° C. without solvent (crystal), content by HPLC; type: physicochemical; conditions: crystal (no solvent); for content of compound, initial: hard glass container, 40° C.
Protocol: (§1) Each of the solutions was placed in a container made of hard glass and stored at 40° C. The time-course content of compound 1 and 2 in the solutions were determined by HPLC method. At the same time, each of compounds 1 and 2 was placed solely (without being dissolved in the solvent) in the container as above, and stored at 40° C. to provide control study.
(1) In the absence of the solvent, the content of the compounds was determined as follows by the HPLC method.
Stored compounds 1 and 2, and standard compounds 1 and 2 were weighed precisely around 0.025 g each, and exactly 5 mL aliquots of internal standard solution were added to the respectively weighed compounds. Test and standard preparations were obtained by adding acetonitrile (liquid chromatograph grade) to give the precise total amount of 10 mL each. Each 10 μL of the test and standard preparations were loaded on liquid chromatograph and determined the content of the compound by internal standard method with one point calibration curve.
(§2) WX: The amount of the compound in the standard preparation (mg)
WT: The amount of compound 1 and 2 in the test preparation.
(§3) QS: Peak area ratio of the compound in the standard preparation to the internal standard.
(§4) QT: Peak area ratio of the compound in the test preparation to the internal standard.
Detector: Ultraviolet absorption spectrophotometer (wavelength 294 nm)
(§5) Column: A stainless tube having about 5 mm of internal diameter and about 25 cm of length, packed with 5 μm octadecylsilyl silica gel for liquid chromatograph
Column temperature: Stable around 35° C.
Mobile phase: Mixed solution of acetonitrile (liquid chromatograph grade)/aqueous sodium acetate (0.01 mol/L)/glacial acetic acid (800:200:1)

[3] = Storage stability at 40° C. dissolved in medium chain fatty acid triglyceride (MCT), content by HPLC; type: physicochemical; conditions: for content of compound, initial / content of compound, 14 days: in MCT (compound 1 0.36 mg/g; compound 2 0.12 mg/g); for content of compound, initial: 40° C.; for content of compound, 14 days: in % (unit assumed)
Protocol: The following compounds 1 and 2 were dissolved in a medium chain fatty acid triglyceride (MCT=mixture of caprylic acid triglyceride and capric acid triglyceride in a ratio of 85:15) in an amount shown in the table below.
as §1
(2) In the presence of the solvent, the content of the compound was determined as follows by HPLC method.
Based on the value expressed in the above table, an amount of the solution corresponding to 36 μg of compounds 1 and 2 was weighed precisely. Precisely 1.0 mL of an internal standard solution was added, and then ethyl acetate, (liquid chromatograph grade) was added to give a total amount of 10 mL each. Each 0.1 mL of the solution was vacuum concentrated to dryness to give the test preparation.
Each 18 mg of the standard compounds was weighed precisely and admixed with ethyl acetate (liquid chromatograph grade) to give the total amount of exactly 50 mL each. 1.0 mL of the solution and 10.0 mL of the internal standard solution were measured precisely and admixed with ethyl acetate (liquid chromatograph grade) to give a total of 100 mL each. Each 0.1 mL of the solution was vacuum concentrated to dryness to give the standard preparation.
To the test and standard preparations, 0.1 mL of fluorescent labeling reagent and 0.85 mL of fluorescent labeling catalyst were added, respectively, and the mixture was stirred and reacted at room temperature for more than 30 minutes. 0.05 mL aliquots of acetonitrile (liquid chromatograph grade) containing 2% acetic acid were added to the reaction mixtures, respectively, stirred, and then allowed to stand for more than 30 minutes to provide test and standard solutions.
Each 10 μL of the test and standard solution was loaded on liquid chromatograph and determined the content of the respective compounds by internal standard method with one point calibration curve.
as §2, §3, §4
Detector: Fluorescent spectrometer (excitation wavelength 259 nm; fluorescent wavelength 394 nm)
as §5
Column temperature: Stable at around 35° C.
Mobile phase: Mixed solution of acetonitrile (liquid chromatograph grade)/methanol (liquid chromatograph grade)/aqueous ammonium acetate (0.05 mol/L) (4:11:5)

healthy male volunteers = assay: Bowel movement after single oral administration to healthy male volunteers; type: in vivo, human
Protocol: Effect of the Present Invention Dissolved in Medium Chain Fatty Acid Triglyceride on Bowel Movement After Single Oral Administration to Healthy Male Volunteers
3 to 9 healthy male volunteers were treated with a composition containing the following mono-cyclic/bi-cyclic structures (in CDCl3) in a ratio of 4:96.
The test substance (R1 and R2 are F atoms) was dissolved in Panacet 800 (medium chain fatty acid triglyceride manufactured by Nippon Oil & Fat co., Ltd., Amagasaki, Japan) and filled in a capsule (each capsule contains […] of the mixture). Each subject was administered one capsule with 100 mL of water.

[4] = 5 μg single oral capsule in Panacet 800
[5] = 10 μg single oral capsule in Panacet 800
[6] = 20 μg single oral capsule in Panacet 800
[7] = 30 μg single oral capsule in Panacet 800

Ratio of mono-cyclic/bi-cyclic structure [1]: No signal
Compound: CCCCCC(=O)CCC1C(O)CC(=O)C1CCCCCCC(=O)O (stereo not shown) [Comparative Example A, reference compound]
Enteropooling activity, ED50 (intraintestinal content): 320 µg/kg

Compound: CCCCCC(=O)CCC1C(O)CC(=O)C1CC=CCCCC(=O)OC (stereo not shown) [Comparative Example C, reference compound]
Enteropooling activity, ED50 (intraintestinal content): 220 µg/kg

Compound: CCCCC(F)(F)C1(O)CCC2C(CC(=O)C2CCCCCCC(=O)O)O1 (stereo not shown) [Example A]
Enteropooling activity, ED50 (intraintestinal content): 0.6 µg/kg

Compound: CCCCC(F)C(=O)CCC1C(O)CC(=O)C1CCCCCCC(=O)O (stereo not shown) [Example B]
Enteropooling activity, ED50 (intraintestinal content): 2 µg/kg

Compound: CCCCC(F)(F)C1(O)CCC2C(CC(=O)C2CC=CCCCC(=O)OC)O1 (stereo not shown) [Example C]
Enteropooling activity, ED50 (intraintestinal content): 0.3 µg/kg

Compound: CCCCC(F)C(=O)CCC1C(O)CC(=O)C1CC=CCCCC(=O)OC (stereo not shown) [Example D]
Enteropooling activity, ED50 (intraintestinal content): 3 µg/kg

content of compound, initial [2]: 100%
content of compound, 7 days ([2]; stored at 40° C., 7 days): 97.2
content of compound, 14 days ([2]; stored at 40° C.): 94.1%
content of compound, 28 days ([2]; stored at 40° C.): 87.4%
content of compound, 38 days ([3]; in MCT (compound 1 0.36 mg/g), stored at 40° C., 38 days): 102.1
content of compound, 90 days ([3]; in MCT (compound 1 0.36 mg/g), stored at 40° C., 90 days): 100.9
content of compound, initial [3]: 100%
content of compound, 14 days ([3]; stored at 40° C.): 101.4
Compound: CCCCC(F)(F)C1(O)CC[C@@H]2C(CCCCCCC(=O)O)C(=O)C[C@H]2O1 (stereo partly shown) [compound 1]

content of compound, initial [2]: 100%
content of compound, 6 days ([2]; stored at 40° C., 6 days): 84.5%
content of compound, 14 days ([2]; stored at 40° C.): 75%
content of compound, 28 days ([2]; stored at 40° C.): 53.4%
content of compound, initial [3]: 100%
content of compound, 14 days ([3]; stored at 40° C.): 99.6
content of compound, 28 days ([3]; in MCT (compound 2 0.12 mg/g), stored at 40° C., 28 days): 98.9%
content of compound, 191 days ([3]; in MCT (compound 2 0.12 mg/g), stored at 40° C., 191 days): 99.6%
Compound: CC[C@H](C)CC(F)(F)C1(O)CC[C@@H]2C(CCCCCCC(=O)O)C(=O)C[C@H]2O1 (stereo partly shown) [compound 2]

Compound: CCCCC(F)(F)C1(O)CCC2C(CC(=O)C2CCCCCCC(=O)O)O1 (stereo not shown) [test substance]
Number of Subjects Loose or Diarrhea (healthy male volunteers; [4]): 2/3
Number of Subjects Normal (healthy male volunteers; [4]): 1/3
Number of Subjects Loose or Diarrhea (healthy male volunteers; [5]): 2/7
Number of Subjects Normal (healthy male volunteers; [5]): 5/7
Number of Subjects Loose or Diarrhea (healthy male volunteers; [6]): 2/3
Number of Subjects Normal (healthy male volunteers; [6]): 1/3
Number of Subjects Loose or Diarrhea (healthy male volunteers; [7]): 7/9
Number of Subjects Normal (healthy male volunteers; [7]): 2/9
